Measured values reported in ChEMBL document CHEMBL1127481, “Adenosine deaminase inhibitors. Synthesis and biological evaluation of 4-amino-1-(2(S)-hydroxy-3(R)-nonyl)-1H-imidazo[4,5-c]pyridine (3-deaza-(+)-EHNA) and certain C1' derivatives” (J Med Chem, 1994).

Biological target: T1, Adenosine deaminase (Bos taurus, UniProt P56658)
T1 sequence (P56658 whole entry): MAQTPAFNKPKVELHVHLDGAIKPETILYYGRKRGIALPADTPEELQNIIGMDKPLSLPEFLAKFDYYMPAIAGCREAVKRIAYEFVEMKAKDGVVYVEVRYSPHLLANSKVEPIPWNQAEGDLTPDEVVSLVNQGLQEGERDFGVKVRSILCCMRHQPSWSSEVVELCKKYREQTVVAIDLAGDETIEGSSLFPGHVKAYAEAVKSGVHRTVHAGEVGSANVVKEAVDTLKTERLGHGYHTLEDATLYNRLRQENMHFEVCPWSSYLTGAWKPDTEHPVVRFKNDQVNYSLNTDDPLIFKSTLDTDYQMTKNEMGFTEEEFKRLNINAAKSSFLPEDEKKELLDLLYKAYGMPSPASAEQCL
Assay: Compound was tested for the inhibition of adenosine deaminase from calf intestinal mucosa

| Compound | Ki [nM] |
| --- | --- |
| CCCCCC[C@H]([C@@H](O)CF)n1cnc2c(N)nccc21 | 4.7 |
| CCCCCC[C@H]([C@@H](O)CO)n1cnc2c(N)nccc21 | 497 |
| CCCCCC[C@H]([C@H](C)O)n1cnc2c(N)nccc21 | 6.2 |
